# In publication PMC7216467, “Evaluation of neuroprotective and anti-amnesic effects of Elaeagnus umbellata Thunb. On scopolamine-induced memory impairment in mice” (BMC Complementary Medicine and Therapies, 2020):
# Tests used:
# [1] = target: T1, BChE (Mus musculus, UniProt Q03311); format: in vivo; conditions: ex vivo, NORT animals, vs scopolamine treated group
# T1 construct: supernatants were collected from homogenized part of brain tissues; from tissue; host or cells: mouse frontal cortex and hippocampus homogenate supernatant
# Procedure: (§1) The frontal cortex (FC) and hippocampus (HC) were dissected out in ice cold 0.1 M phosphate buffer saline (pH 8.0). The tissues were weighed and 20 mg tissue/mL homogenate of brain samples was prepared in phosphate buffer (pH 8.0). The homogenates were centrifuged at 10,000 rpm for 10 min at 4 °C, and the resulting supernatant was used for the estimation of anti-cholinesterase activity following Ellman’s and antioxidants assays.
# (§2) Ex vivo analysis of cholinesterase inhibitory potentials was also measured to check the cholinergic hypo function in animal model using the isolated compound CGA and CHF extract.
# [2] = target: T2, AChE (Mus musculus, UniProt P21836); format: in vivo; conditions: ex vivo, NORT animals, vs scopolamine treated group
# T2 construct: supernatants were collected from homogenized part of brain tissues; from tissue; host or cells: mouse frontal cortex and hippocampus homogenate supernatant
# T2 sequence (P21836 32-614): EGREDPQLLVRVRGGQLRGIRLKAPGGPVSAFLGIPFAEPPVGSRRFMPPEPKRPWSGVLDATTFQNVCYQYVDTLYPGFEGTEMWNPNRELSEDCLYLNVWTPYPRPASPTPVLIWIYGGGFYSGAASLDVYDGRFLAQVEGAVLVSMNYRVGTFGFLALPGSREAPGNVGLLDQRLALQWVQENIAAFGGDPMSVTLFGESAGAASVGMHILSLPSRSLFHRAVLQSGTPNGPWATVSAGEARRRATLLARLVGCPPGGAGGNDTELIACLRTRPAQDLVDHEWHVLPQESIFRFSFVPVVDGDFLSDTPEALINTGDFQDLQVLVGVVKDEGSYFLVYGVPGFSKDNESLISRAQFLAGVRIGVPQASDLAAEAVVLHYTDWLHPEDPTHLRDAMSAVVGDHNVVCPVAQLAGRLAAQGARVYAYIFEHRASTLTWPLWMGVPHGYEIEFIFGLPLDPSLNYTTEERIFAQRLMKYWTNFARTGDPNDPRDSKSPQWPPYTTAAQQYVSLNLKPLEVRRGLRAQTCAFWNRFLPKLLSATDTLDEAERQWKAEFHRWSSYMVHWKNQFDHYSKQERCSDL
# Procedure: as §1, §2
# [3] = system: scopolamine-induced cognitive impairment in mice; experiment: Novel object recognition test, scopolamine-induced amnesia; format: in vivo
# Procedure: (§3) After the acclimatization period, in scopolamine-induced amnesia test the Albino male mice were randomly divided into six groups (n = 6) to study the effect of CHF. […] The doses of tested solutions of CHF. […] The treatments were continued for 8 days. In the Y-maze and Novel object recognition tests, scopolamine (1 mg/kg, i.p.) was given to the different groups only on the 8th day, 30 min after the respective treatments, to induce cognitive deficit in mice. One hour after administration of the drugs all animals were subjected to Y-maze and Novel object recognition test following standard procedure.
# The detail methodology published, was followed while performing the novel object recognition (NORT) test. NORT consisting of habituation, sample, and test phases. On the day before test, mice were allowed to explore the box (without any object) for 2 min. On the day of test after habituation the sample phase was carried out 60 min after the last treatment on the 8th day. In sample phase each mouse was placed in an open field with two identical objects (plastic ball) for 5 min. The mouse was then returned to its home cage. The apparatus was comprised of a white coloured plywood box (40 cm × 40 cm × 66 cm) with a network floors that could be effortlessly cleaned (with 70%v/v ethanol) after every trial. The apparatus was illuminated by a 60 W light suspended 50 cm over the crate. The arena and objects were cleaned with 70% v/v ethanol between trials to avoid olfactory cues. For short-term memory, the test phase was performed 5 min after the sample phase. In the test phase, each mouse was placed again in the open field in which one of the identical objects had been replaced with a novel object (plastic square). The location of the object was counterbalanced so that one half of the mice in each group saw the novel object on the left side of the box arena, and the other half saw the novel object on the right side of the box arena to eliminate bias of sides. NORT can also be used for encoding and retrieval of spatial memory (long-term memory). A wash-out period of 5 days was allowed before the NORT to assess long-term memory in mice. The procedure was the same as that for short-term memory except that mice were presented in the test phase 24 h after the sample phase exposure. The time spent exploring each object in each phase was recorded manually using a stopwatch. A mouse was scored as exploring when its head was oriented towards the object within a distance of 2 cm or when the nose was in contact with the object. Parameters including the time (in seconds) spent exploring familiar (F) object, time (in seconds) spent exploring the novel (N) object, and total time (in seconds) spent exploring both objects (N + F) were measured separately.
# [4] = system: mice; conditions: Swiss albino, mouse, in vivo, po, 72 h
# Procedure: All animals were then treated orally with different doses of CHF. […] Immediately after dosing, the mice were observed continuously for 4 h for symptoms of toxicity such as motor activity, convulsions, muscle spasm, tremors, sedation, lacrimation, hypnosis, diarrhoea, salivation, and loss of righting reflex. Mice were then kept under observation up to 72 h for any mortality. The CHF. […] Therefore, according to OECD guidelines, CHF.
# [5] = system: scopolamine-induced cognitive impairment in mice; experiment: Y-maze test, scopolamine-induced amnesia; format: in vivo
# Procedure: as §3
# The Y-Maze test was designed to evaluate the short term memory in experimental mice using reported procedure. Y-maze apparatus is Y shaped with three arms of equivalent size, labelled as A, B, and C. Each arm was 20 cm long, 6 cm wide and 15.5 cm high and was oriented at an angle of 120° from the other two. For each animal the Y maze testing was carried out for 5 min. Mice were placed in one arm, and the order and number of arm entries were recorded. An arm entry was considered to be complete when the hind paws of the mice was completely inside a given arm while alternation was defined as consecutive entries by a mouse into the three different arms. The arena was cleaned using 70% v/v ethanol between each trial to avoid olfactory cues. The escape latency (second) on day 1–5 were recorded for all animals. At the end of 5th day, the spontaneous alteration behavior study was conducted. In spontaneous alteration study, each animal was placed at the center of the Y-Maze apparatus and allowed to move freely through the maze. The series of arm entries were visually recorded. To start behavioral test the mice was set in one arm and recorded the number of arm entries, same arm returns (SAR), and alternate arm returns (AAR) were measured. Percent spontaneous alternation performance (SAP) was calculated by the following formula: 5 %SAP=Active alterationstotal alterations/Possible alterationstotalarmentries−2x100
# [6] = target: T3, Acetyl cholinesterase (Electron-eel Type, VI-S) (Electrophorus electricus, UniProt O42275); experiment: biochemical; format: biochemical
# T3 construct: purchased Sigma-Aldrich, Germany
# Procedure: Ellman assay was used to evaluate E. umbellata fruit extracts and isolated compounds for their anticholinesterase potentials. About 205 μL extract/compound solutions and 5 μL of AChE (0.03 U/mL)/BChE (0.01 U/mL) along with catalyst DTNB (5 μL) were taken in a cuvette and kept at 30 °C in hot water bath for 15 min. […] As a negative control solution all the above mentioned components except extracts and isolated compounds were mixed in the mentioned order.
# V is inhibitor dependent rate of reaction while, Vmax is inhibitor independent rate of reaction.
# [7] = Ex vivo brain DPPH free radicals scavenging activity; format: in vivo, mice
# Procedure: as §1
# [8] = vs scopolamine (1 mg/kg) group, CHF. Ext 200 mg/kg, CGA 10 and 30 mg/kg, donepezil 2 mg/kg
# T3 sequence (O42275 24-633): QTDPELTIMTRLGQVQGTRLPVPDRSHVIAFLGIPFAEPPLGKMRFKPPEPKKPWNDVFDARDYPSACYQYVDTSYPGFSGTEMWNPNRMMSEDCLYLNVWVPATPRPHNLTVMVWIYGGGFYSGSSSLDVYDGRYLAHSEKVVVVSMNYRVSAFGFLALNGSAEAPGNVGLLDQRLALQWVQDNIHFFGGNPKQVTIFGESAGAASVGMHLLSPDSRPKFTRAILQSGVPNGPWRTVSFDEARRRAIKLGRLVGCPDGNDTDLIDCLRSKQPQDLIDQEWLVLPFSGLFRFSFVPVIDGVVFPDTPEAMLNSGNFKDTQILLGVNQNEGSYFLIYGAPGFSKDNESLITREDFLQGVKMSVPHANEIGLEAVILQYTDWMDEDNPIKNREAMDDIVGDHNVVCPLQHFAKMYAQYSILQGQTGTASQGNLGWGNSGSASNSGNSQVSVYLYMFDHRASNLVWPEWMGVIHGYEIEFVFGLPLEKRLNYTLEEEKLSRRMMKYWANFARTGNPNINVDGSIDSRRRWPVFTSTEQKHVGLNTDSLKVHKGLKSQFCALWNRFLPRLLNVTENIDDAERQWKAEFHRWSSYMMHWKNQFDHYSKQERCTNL
# T1 sequence (Q03311 30-603): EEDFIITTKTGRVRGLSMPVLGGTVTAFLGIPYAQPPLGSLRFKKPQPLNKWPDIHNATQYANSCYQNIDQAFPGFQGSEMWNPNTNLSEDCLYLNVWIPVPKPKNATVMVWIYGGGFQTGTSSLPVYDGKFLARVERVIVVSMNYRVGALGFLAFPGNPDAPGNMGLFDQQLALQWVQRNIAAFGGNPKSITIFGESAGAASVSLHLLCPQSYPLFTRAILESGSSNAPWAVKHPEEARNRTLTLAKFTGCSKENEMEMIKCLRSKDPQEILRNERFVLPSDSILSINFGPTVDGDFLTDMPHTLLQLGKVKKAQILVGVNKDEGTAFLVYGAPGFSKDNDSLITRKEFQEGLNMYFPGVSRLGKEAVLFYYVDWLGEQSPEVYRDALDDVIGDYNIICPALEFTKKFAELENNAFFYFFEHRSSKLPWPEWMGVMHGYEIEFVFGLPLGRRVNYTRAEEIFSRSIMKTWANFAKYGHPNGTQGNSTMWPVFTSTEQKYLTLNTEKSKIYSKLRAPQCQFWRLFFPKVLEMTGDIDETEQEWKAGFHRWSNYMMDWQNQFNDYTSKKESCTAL
smiles,measurement,setting,value
"O=C(/C=C/c1ccc(O)c(O)c1)O[C@@H]1C[C@](O)(C(=O)O)C[C@@H](O)[C@H]1O [Compound-I, Chlorogenic acid]",% BChE activity in cortex and hippocampus,[1],significantly (***p < 0.001; **p < 0.01) lower
same,% AChE activity in cortex and hippocampus,[2],significantly (***p < 0.001; **p < 0.01) lower
same,"time for exploration of novel object, test phase, long term memory","[3]; CHF. Ext 100 & 200 mg/kg, CGA 10 & 30 mg/kg, donepezil 2 mg/kg","significant (*p < 0.05, **p < 0.01) increase"
same,"%DI, long term memory","[3]; CHF. Ext 100, 200 mg/kg, CGA 10 & 30 mg/kg, donepezil 2 mg/kg","significant (*p < 0.05, **p < 0.01) increase"
same,"time with novel object, test phase, short term memory","[3]; vs scopolamine group (*p < 0.05, **p < 0.01), CHF. Ext 50, 100, 200 mg/kg, CGA 10 and 30 mg/kg, donepezil 2 mg/kg",more time with novel object
same,"time for exploration of two objects, sample phase, short term memory",[3]; vs scopolamine treated group,no significant difference
same,"total time spent exploring the two identical objects, sample phase, long term memory",[3]; vs scopolamine treated group,no significant differences
same,dose range that remained safe and nontoxic,[4],up to 300 mg/kg
same,escape latency,"[5]; day 1-5, vs scopolamine treated group",significant decline (p < 0.001)
same,total numbers of entries into arms,[5]; treated groups compared to control group,non-significant (p > 0.05) decrease
same,percentage of alternate arm returns,[5]; [8],significant (*p<0.05; **p < 0.01) increase
same,percentage of same arm returns,[5]; [8],significant (p < 0.01) reduction
same,% AChE Mean ± SEM,[6]; 31.05 µg/mL,50±0.4^ ns %
same,% AChE Mean ± SEM,[6]; 62.5 µg/mL,59±0.3 %
same,% AChE Mean ± SEM,[6]; 125 µg/mL,68±0.4 %
same,% AChE Mean ± SEM,[6]; 250 µg/mL,76±0.5 %
same,% AChE Mean ± SEM,[6]; 500 µg/mL,82±0.1 %
same,% AChE Mean ± SEM,"[6]; 1000 µg/mL, listed as Compound -I",90±0.2^ns %
same,% AChE Mean ± SEM,"[6]; 1000 µg/mL, listed as Compound I",90 ± 0.2%
same,IC50,"[6]; linear regression, read-out: AChE IC50 (converted)",87.5 µM
same,% anti-radicals activities (DPPH) in cortex,"[7]; NORT animals, cortex",51.43 ± 2.88%
same,% anti-radicals activities (DPPH) in hippocampus,"[7]; NORT animals, hippocampus",65.36 ± 1.45%
same,% DPPH inhibition potential in cortex,"[7]; Y-maze test animals, frontal cortex",47.85 ± 2.11%
same,% DPPH inhibition potential in hippocampus,"[7]; Y-maze test animals, hippocampus",44.12 ± 1.77%
